Converted amounts (≈) assume the structure as drawn.
Key:
S. aureus MRSA5 = test: In vitro MIC assay, S. aureus MRSA5; format: cell-based; conditions: Staphylococcus aureus, broth microdilution, 35° C., 18-24 hours
S. aureus RN4250 = test: In vitro MIC assay, S. aureus RN4250; format: cell-based; conditions: Staphylococcus aureus, broth microdilution, 35° C., 18-24 hours
E. coli MG 1655 DWAK = test: In vitro MIC assay, E. coli MG 1655 DWAK; format: cell-based; conditions: Escherichia coli, MG1655DWAK; broth microdilution, 35° C., 18-24 hours
Experimental: The following assay was used to determine the efficacy of tetracycline compounds against common bacteria. Serial dilutions of compounds were prepared in microdilution plates using a Tecan robotic workstation. Mueller Hinton broth cultures of gram negative and gram positive strains were grown or adjusted to match the turbidity of a 0.5 McFarland standard. 1:200 dilutions were made in appropriate broth (cation supplemented Mueller Hinton broth or Haemophilus test medium) to allow a final inoculum of 1×10^5 cfu. Lysed horse blood was used to supplement broth for testing S. pneumoniae. The plates were incubated at 35° C. in ambient air for 18-24 hours, read spectrophotometrically, and checked manually for evidence of bacterial growth. Serial dilutions of compounds were also added to Brucella agar supplemented with laked sheep blood for P. acnes tests. A standard inoculum was transferred to the plate using a stainless steel replicator. After 48 hours of anaerobic incubation at 35° C. plates were examined. The MIC was defined as the lowest concentration of the tetracycline compound that inhibits growth. Table 3 gives the MIC (μg/mL) of selected substituted tetracycline compounds against a variety of gram positive and gram negative bacteria.

COS-1 or CHO cell = test: Mammalian cell cytotoxicity assay (Resazurin; Alamar Blue); format: cell-based; conditions: COS-1 or CHO cells, 24 hour incubation
Experimental: To predict the in vivo risks associated with the compounds of the invention, a soluble, non-toxic redox dye (“Resazurin”; Alamar Blue) was used to assess a compound's effect on cellular metabolism. COS-1 or CHO cell suspensions were prepared, seeded into 96-well black-walled microtiter plates, and incubated overnight at 37° C., in 5% CO2 and approximately 95% humidity. On the next day, serial dilutions of test drug were prepared and transferred to cell plates. Following a 24 hour incubation period, the media/drug was aspirated, and 50 μL of resazurin was added. After a 2 hour incubation, fluorescence measurements were taken (excitation […], emission 590 nm) and toxic effects in treated versus control cells were compared based on the degree of fluorescence in each well.

E. coli translation = test: In vitro translation assay for inhibition of bacterial protein synthesis (E. coli S30 Extract System, luciferase); format: biochemical; conditions: 37° C., 1 hour, luciferase luminescence
Experimental: As a further measure of antibacterial activity, an E. coli S30 Extract System was used to quantitate inhibition of E. coli translation by tetracycline derivatives. This system contained all required components for translation, including a nucleic acid template which, when translated, produces functional luciferase. The reactions were set up with E. coli S30 extract, amino acids, DNA template and selected tetracycline compounds at concentrations of 100, 50, 25, 10, 5, and 1 μg/ml. The reactions were incubated at 37° C. for 1 hour and analyzed by adding the reaction mix to Steady-Glo Luciferase Assay substrate (Promega, Madison Wis.). Luminescence was measured with the Wallac Victor5 plate reader and inhibition is calculated by comparing luciferase activity in experimental reactions versus controls.

S. aureus RN450 = test: In vitro MIC assay, S. aureus RN450; format: cell-based; conditions: Staphylococcus aureus, broth microdilution, 35° C., 18-24 hours
P. aeruginosa K1033 = test: In vitro MIC assay, P. aeruginosa K1033; format: cell-based; conditions: Pseudomonas aeruginosa, broth microdilution, 35° C., 18-24 hours
E. coli (ATCC 25922) = test: In vitro MIC assay, E. coli (ATCC 25922); format: cell-based; conditions: Escherichia coli, ATCC25922; broth microdilution, 35° C., 18-24 hours
[1] = test system: H. influenza (ATCC 49247); test: In vitro MIC assay, H. influenza (ATCC 49247); format: cell-based; conditions: read-out: MIC H. influenza (ATCC 49247)
[2] = test system: Mouse 3T3 fibroblast cells; test: Phototoxicity assay (neutral red); format: cell-based; conditions: 3T3 cells; for phototoxicity at 30 μM, incubated in the UV light: UV light 1.6-1.8 mW/cm^2, 30 μM
Experimental: Mouse 3T3 fibroblast cells were harvested and plated at a concentration of 1×10^5 cells/mL. Drug dilutions were made in HBSS and added to the plates. Duplicate plates were then incubated in the dark (for controls), or under UV light (meter reading of 1.6-1.8 mW/cm^2) for 50 minutes. Cells were then washed with HBSS, fresh medium was added, and plates were then incubated overnight. The following day, neutral red was added as an indicator of cell viability and plates were incubated for an additional 3 hours. Cells were then washed with HBSS and a solution of 50% EtOH, 10% glacial acetic acid is added. After a 20 minute incubation period, plates absorbance at 535 nm were read using a Wallac Victor 5 spectrophotometer. The phototoxicity in light-treated and control cultures was then compared.

S. pneumoniae 157E = test: In vitro MIC assay, S. pneumoniae 157E; format: cell-based; conditions: Streptococcus pneumoniae, broth supplemented with lysed horse blood, 35° C., 18-24 hours
B. fragilis (ATCC 25285) = test: In vitro MIC assay, B. fragilis (ATCC 25285); format: cell-based; conditions: Bacteroides fragilis, ATCC25285
P. acnes (ATCC 11827) = test: In vitro MIC assay, P. acnes (ATCC 11827); format: cell-based; conditions: Cutibacterium acnes, ATCC11827; Brucella agar with laked sheep blood, 48 hours anaerobic, 35° C.
[3] = test system: B. theraiotaomicron (ATCC 29741); test: In vitro MIC assay, B. theraiotaomicron (ATCC 29741); format: cell-based
P. acnes (PBS 1074) = test: In vitro MIC assay, P. acnes (PBS 1074); format: cell-based; conditions: Cutibacterium acnes; Brucella agar with laked sheep blood, 48 hours anaerobic, 35° C.
P. acnes (ATCC 1077) = test: In vitro MIC assay, P. acnes (ATCC 1077); format: cell-based; conditions: Cutibacterium acnes, ATCC1077; Brucella agar with laked sheep blood, 48 hours anaerobic, 35° C.
P. acnes (PBS 1073) = test: In vitro MIC assay, P. acnes (PBS 1073); format: cell-based; conditions: Cutibacterium acnes; Brucella agar with laked sheep blood, 48 hours anaerobic, 35° C.
P. acnes (ATCC 6919) = test: In vitro MIC assay, P. acnes (ATCC 6919); format: cell-based; conditions: Cutibacterium acnes, ATCC6919; Brucella agar with laked sheep blood, 48 hours anaerobic, 35° C.

| SMILES | MIC (S. aureus MRSA5) [µg/mL] | MIC (S. aureus RN4250) [µg/mL] | MIC (E. coli MG 1655 DWAK) [µg/mL] | cytotoxicity at 75 μg/mL (COS-1 or CHO cell) | IC20 (E. coli translation) [µM] | IC50 (E. coli translation) [µM] | MIC (S. aureus RN450) [µg/mL] | MIC (P. aeruginosa K1033) [µg/mL] | MIC (E. coli (ATCC 25922)) [µg/mL] | MIC [1] [µg/mL] | phototoxicity at 30 μM, incubated in the UV light [2] | phototoxicity at 150 μM, incubated in the dark [2] | MIC (S. pneumoniae 157E) [µg/mL] | MIC (B. fragilis (ATCC 25285)) [µg/mL] | MIC (P. acnes (ATCC 11827)) [µg/mL] | MIC [3] [µg/mL] | MIC (P. acnes (PBS 1074)) [µg/mL] | MIC (P. acnes (ATCC 1077)) [µg/mL] | MIC (P. acnes (PBS 1073)) [µg/mL] | MIC (P. acnes (ATCC 6919)) [µg/mL] |
| --- | --- | --- | --- | --- | --- | --- | --- | --- | --- | --- | --- | --- | --- | --- | --- | --- | --- | --- | --- | --- |
| CN(C)c1cc(C(=O)O)cc2c1CC1CC3[C@@H](N(C)C)C(O)=C(C(N)=O)C(=O)[C@@]3(O)C(O)=C1C2=O (stereo partly shown) [G] | 44 to 64 (≈ 90.6 to 132 µM) | 44 to 64 (≈ 90.6 to 132 µM) | 44 to 64 (≈ 90.6 to 132 µM) | minimal cytotoxicity | < 100 | < 100 | 44 to 64 (≈ 90.6 to 132 µM) | 44 to 64 (≈ 90.6 to 132 µM) | 44 to 64 (≈ 90.6 to 132 µM) | 44 to 64 (≈ 90.6 to 132 µM) | minimally phototoxic | not to be appreciably phototoxic | 44 to 64 (≈ 90.6 to 132 µM) |  |  |  |  |  |  |  |
| CN(C)c1cccc2c1CC1CC3CC(O)=C(C(N)=O)C(=O)[C@@]3(O)C(O)=C1C2=O (stereo partly shown) [E] | 0 to 21 | 0 to 21 | 0 to 21 |  | > 100 | < 100 | 0 to 21 | 0 to 21 | 44 to 64 (≈ 110 to 161 µM) | 22 to 43 (≈ 55.2 to 108 µM) |  | not to be appreciably phototoxic | 44 to 64 (≈ 110 to 161 µM) |  |  |  |  |  |  |  |
| CN(C)c1cc2c(c3c1CC1CC4[C@H](N(C)C)C(O)=C(C(N)=O)C(=O)[C@@]4(O)C(O)=C1C3=O)OC(=O)N(CC(C)(C)C)C2 (stereo partly shown) [P] | 44 to 64 (≈ 75.5 to 110 µM) | 44 to 64 (≈ 75.5 to 110 µM) |  | minimal cytotoxicity |  |  | 44 to 64 (≈ 75.5 to 110 µM) |  |  | 44 to 64 (≈ 75.5 to 110 µM) | minimally phototoxic |  | 44 to 64 (≈ 75.5 to 110 µM) |  |  |  |  |  |  |  |
| CN(C)c1cccc2c1CC1CC3[C@@H](N(C)C)C(O)=C(C(N)=O)C(=O)[C@@]3(O)C(O)=C1C2=O (stereo partly shown) [C] | 44 to 64 (≈ 99.7 to 145 µM) | 0 to 21 | 0 to 21 | minimal cytotoxicity | > 100 | > 100 | 0 to 21 | 0 to 21 | 44 to 64 (≈ 99.7 to 145 µM) | 22 to 43 (≈ 49.8 to 97.4 µM) |  | not to be appreciably phototoxic | 0 to 21 |  |  |  |  |  |  |  |
| CC1CCN(Cc2cccc3c2CC2CC4[C@@H](N(C)C)C(O)=C(C(N)=O)C(=O)[C@@]4(O)C(O)=C2C3=O)CC1 (stereo partly shown) [K] | 0 to 21 | 0 to 21 | 0 to 21 | minimal cytotoxicity |  |  | 0 to 21 | 0 to 21 | 0 to 21 | 0 to 21 |  |  | 0 to 21 | 0 to 8 | 0 to 8 | 28 to 32 (≈ 54.9 to 62.8 µM) | 28 to 32 (≈ 54.9 to 62.8 µM) | 28 to 32 (≈ 54.9 to 62.8 µM) | 28 to 32 (≈ 54.9 to 62.8 µM) | 0 to 8 |
| CN(C)c1cc2cc(-c3ccc(N)cc3)oc2c2c1CC1CC3[C@H](N(C)C)C(O)=C(C(N)=O)C(=O)[C@@]3(O)C(O)=C1C2=O (stereo partly shown) [Q] | 0 to 21 | 0 to 21 |  |  | < 100 | < 100 | 0 to 21 |  |  | 44 to 64 (≈ 76.8 to 112 µM) |  |  | 22 to 43 (≈ 38.4 to 75.1 µM) |  |  |  |  |  |  |  |
| CN(C)[C@H]1C(O)=C(C(N)=O)C(=O)[C@@]2(O)C(O)=C3C(=O)c4cccc(-c5ncccn5)c4CC3CC12 (stereo partly shown) [L] | 0 to 21 | 0 to 21 | 0 to 21 | minimal cytotoxicity |  |  | 0 to 21 | 0 to 21 | 22 to 43 (≈ 46.2 to 90.2 µM) | 44 to 64 (≈ 92.3 to 134 µM) |  |  | 0 to 21 | 0 to 8 | 0 to 8 | 28 to 32 (≈ 58.8 to 67.2 µM) | 28 to 32 (≈ 58.8 to 67.2 µM) | 28 to 32 (≈ 58.8 to 67.2 µM) | 28 to 32 (≈ 58.8 to 67.2 µM) | 0 to 8 |

Reference: patent US20070093455A1, “10-substituted tetracyclines and methods of use thereof” (priority 2005, published 2007)
